Test results published in patent US20060069132A1, “Azolecarboxamide herbicides” (priority 2004, published 2006).

What was measured:
velvetleaf [1] = experiment: Test A pre-/postemergence herbicide test; assay type: in vivo, Abutilon theophrasti
How it was run: (§1)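 Visual injury scores on a 0–100 scale (100 = complete control) taken about ten days post-treatment in greenhouse against untreated controls; dash means no result. Treatments: preemergence soil spray and postemergence spray to runoff on one- to two-leaf plants 2 to 10 cm tall, surfactant-containing formulation.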

[2] = test system: common (oilseed) sunflower; experiment: Test C pre-/postemergence herbicide test; assay type: in vivo, Helianthus annuus; conditions: for Plant response rating, Sunflower / Plant response rating (0 = no effect, 100 = complete control), Sunflower: preemergence; for Sunflower plant response rating: Preemergence, scale 0 to 100, 0 no effect, 100 complete control
How it was run: (§2)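 Visual ratings on a 0–100 scale (100 = complete control) made versus untreated controls after 12 to 14 greenhouse days. Test chemicals, formulated in surfactant-containing non-phytotoxic solvent, applied preemergence to planted seeds or postemergence to 1- to 4-leaf plants (2 to 18 cm).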

cocklebur = experiment: Test C pre-/postemergence herbicide test; assay type: in vivo, Xanthium strumarium; conditions: for Cocklebur plant response rating: 500 g ai/ha
How it was run: as §2

large crabgrass = experiment: Test C pre-/postemergence herbicide test; assay type: in vivo, Digitaria sanguinalis
How it was run: as §2

velvetleaf [3] = experiment: Test C pre-/postemergence herbicide test; assay type: in vivo, Abutilon theophrasti
How it was run: as §2

pigweed = experiment: Test C pre-/postemergence herbicide test; assay type: in vivo, Amaranthus retroflexus
How it was run: as §2

giant foxtail = experiment: Test A pre-/postemergence herbicide test; assay type: in vivo, Setaria faberi
How it was run: as §1

rice = experiment: Test B pre-/postemergence herbicide test; assay type: in vivo, Oryza sativa; conditions: preemergence
How it was run: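 Formulation: non-phytotoxic solvent mix with surfactant. Timing: preemergence on seed and postemergence on 2–18 cm plants, applied concurrently. Readout after 13–15 d greenhouse: visual 0–100 control rating against controls.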

[4] = Postemergence, 2000 g ai/ha, 0 to 100 scale, 0 no effect, 100 complete control
[5] = Preemergence, 500 g ai/ha, visual rating, 0 to 100 scale (0 no effect, 100 complete control)
[6] = Preemergence, 2000 g ai/ha, visual rating, 0 to 100 scale (0 no effect, 100 complete control)
[7] = 125 g ai/ha, scale 0 (no effect) to 100 (complete control), visual, 12 to 14 days
[8] = 31 g ai/ha, preemergence, scale 0 to 100
[9] = 125 g ai/ha, scale 0 (no effect) to 100 (complete control), visual, 12 to 14 days, preemergence
[10] = 250 g ai/ha, scale 0 to 100 (0 no effect, 100 complete control), visual, 12 to 14 days, preemergence
[11] = Postemergence, 500 g ai/ha, 0 to 100 scale, 0 no effect, 100 complete control
[12] = 125 g ai/ha, 0 to 100 scale, 0 is no effect, 100 is complete control
[13] = preemergence, 500 g ai/ha, visual injury, 0 to 100 scale (0 no effect, 100 complete control)
[14] = Postemergence, 250 g ai/ha, scale 0 to 100, 0 no effect, 100 complete control
[15] = Preemergence, scale 0 to 100, 0 no effect, 100 complete control
[16] = postemergence, 125 g ai/ha, scale 0 to 100
[17] = postemergence, 62 g ai/ha, scale 0 to 100
[18] = Postemergence, 500 g ai/ha, scale 0 to 100
[19] = Preemergence, 500 g ai/ha, scale 0 to 100, 0 no effect, 100 complete control
[20] = 500 g ai/ha, visual rating 0-100, 0 no effect, 100 complete control
[21] = 62 g ai/ha, preemergence, scale 0 to 100
[22] = 250 g ai/ha, scale 0-100, preemergence
[23] = 500 g ai/ha, scale 0 to 100 (0 no effect, 100 complete control), visual, 12 to 14 days, preemergence

## CCn1nc(C(C)(C)C)cc1C(=O)Nc1cccc(C(=O)NCC2CC2)c1 [Compound 62]
Velvetleaf [1]; [4]
  Plant response rating, Velvetleaf: 20
Velvetleaf [1]; [5]
  Velvetleaf plant response rating: 70
Velvetleaf [1]; [6]
  Velvetleaf plant response rating: 95
[2]; 31 g ai/ha, scale 0 to 100
  Plant response rating, Sunflower: 0
[2]; 62 g ai/ha
  Plant response rating (0 = no effect, 100 = complete control), Sunflower: 0
[2]; [7]
  Plant response rating, Sunflower: 0
[2]; 250 g ai/ha, scale 0 to 100 (0 no effect, 100 complete control), visual, 12 to 14 days
  Plant response rating, Sunflower: 0
cocklebur; [8]
  Plant response rating, Cocklebur: 0
cocklebur; 62 g ai/ha, preemergence
  Plant response rating (0 = no effect, 100 = complete control), Cocklebur: 0
cocklebur; [9]
  Plant response rating, Cocklebur: 0
cocklebur; [10]
  Plant response rating, Cocklebur: 0
Large crabgrass; [8]
  Plant response rating, Crabgrass, Large: 5
Large crabgrass; 62 g ai/ha, preemergence
  Plant response rating (0 = no effect, 100 = complete control), Crabgrass, Large: 40
Large crabgrass; [9]
  Plant response rating, Crabgrass, Large: 90
Large crabgrass; [10]
  Plant response rating, Crabgrass, Large: 90
Velvetleaf [3]; [8]
  Plant response rating, Velvetleaf: 0
Velvetleaf [3]; [10]
  Plant response rating, Velvetleaf: 70
pigweed; [8]
  Plant response rating, Pigweed: 90
pigweed; 62 g ai/ha, preemergence
  Plant response rating (0 = no effect, 100 = complete control), Pigweed: 95
pigweed; [9]
  Plant response rating, Pigweed: 95
pigweed; [10]
  Plant response rating, Pigweed: 95
Giant foxtail; [11]
  Plant response rating, Foxtail, Giant: 55
Giant foxtail; [4]
  Plant response rating, Foxtail, Giant: 85
Giant foxtail; [5]
  Foxtail, Giant plant response rating: 75
Giant foxtail; Preemergence, 2000 g ai/ha, 0 to 100 scale, 0 no effect, 100 complete control
  Foxtail, Giant plant response rating: 100
rice; [12]
  Plant response rating, Rice: 0

## CCNC(=O)c1cccc(NC(=O)c2cc(C(C)(C)C)nn2CC)n1 [Compound 144]
Velvetleaf [1]; [11]
  Velvetleaf plant response rating: 55
Velvetleaf [1]; [4]
  Plant response rating, Velvetleaf: 75
Velvetleaf [1]; [6]
  Velvetleaf plant response rating: 90
Velvetleaf [1]; [13]
  Velvetleaf plant response rating: 70
[2]; 62 g ai/ha
  Plant response rating (0 = no effect, 100 = complete control), Sunflower: 0
[2]; [7]
  Plant response rating, Sunflower: 0
[2]; 500 g ai/ha
  Sunflower plant response rating: 40
cocklebur; 62 g ai/ha, preemergence
  Plant response rating (0 = no effect, 100 = complete control), Cocklebur: 0
cocklebur; [9]
  Plant response rating, Cocklebur: 0
cocklebur; [10]
  Plant response rating, Cocklebur: 0
cocklebur; Postemergence, scale 0 to 100
  Cocklebur plant response rating: 70
cocklebur; [14]
  Plant response rating, Cocklebur: 70
cocklebur; [15]
  Cocklebur plant response rating: 80
cocklebur; [16]
  Plant response rating, Cocklebur: 40
cocklebur; [17]
  Plant response rating, Cocklebur: 10
Large crabgrass; 62 g ai/ha, preemergence
  Plant response rating (0 = no effect, 100 = complete control), Crabgrass, Large: 50
Large crabgrass; [9]
  Plant response rating, Crabgrass, Large: 70
Large crabgrass; [10]
  Plant response rating, Crabgrass, Large: 85
Large crabgrass; [18]
  Crabgrass, Large plant response rating: 100
Large crabgrass; [14]
  Plant response rating, Crabgrass, Large: 100
Large crabgrass; [19]
  Crabgrass, Large plant response rating: 100
Large crabgrass; [16]
  Plant response rating, Crabgrass, Large: 10
Large crabgrass; [17]
  Plant response rating, Crabgrass, Large: 0
Velvetleaf [3]; [9]
  Plant response rating, Velvetleaf: 100
Velvetleaf [3]; [18]
  Velvetleaf plant response rating: 50
Velvetleaf [3]; [14]
  Plant response rating, Velvetleaf: 50
Velvetleaf [3]; [19]
  Velvetleaf plant response rating: 100
Velvetleaf [3]; [16]
  Plant response rating, Velvetleaf: 20
Velvetleaf [3]; [17]
  Plant response rating, Velvetleaf: 0
pigweed; 62 g ai/ha, preemergence
  Plant response rating (0 = no effect, 100 = complete control), Pigweed: 90
pigweed; [9]
  Plant response rating, Pigweed: 90
pigweed; [18]
  Pigweed plant response rating: 100
pigweed; [14]
  Plant response rating, Pigweed: 100
pigweed; [19]
  Pigweed plant response rating: 100
pigweed; [16]
  Plant response rating, Pigweed: 100
pigweed; [17]
  Plant response rating, Pigweed: 100
Giant foxtail; [11]
  Foxtail, Giant plant response rating: 80
Giant foxtail; [4]
  Plant response rating, Foxtail, Giant: 100
Giant foxtail; [5]
  Foxtail, Giant plant response rating: 90
Giant foxtail; [6]
  Foxtail, Giant plant response rating: 100
rice; [20]
  Plant response rating, Rice: 30
rice; [12]
  Plant response rating, Rice: 20

## CCc1nc(C(C)(C)C)sc1C(=O)Nc1cccc(C(=O)NCC2CC2)c1 [Compound 212]
Velvetleaf [1]; [11]
  Velvetleaf plant response rating: 35
Velvetleaf [1]; [4]
  Plant response rating, Velvetleaf: 35
Velvetleaf [1]; [6]
  Velvetleaf plant response rating: 100
Velvetleaf [1]; [13]
  Velvetleaf plant response rating: 65
[2]; 62 g ai/ha, scale 0 to 100
  Plant response rating, Sunflower: 0
[2]; [7]
  Plant response rating, Sunflower: 0
[2]; 250 g ai/ha, scale 0-100
  Plant response rating, Sunflower: 0
[2]; 500 g ai/ha, scale 0 to 100 (0 no effect, 100 complete control), visual, 12 to 14 days
  Plant response rating, Sunflower: 0
cocklebur; [21]
  Plant response rating, Cocklebur: 0
cocklebur; [9]
  Plant response rating, Cocklebur: 0
cocklebur; [22]
  Plant response rating, Cocklebur: 5
cocklebur; Postemergence, scale 0 to 100
  Cocklebur plant response rating: 70
cocklebur; [14]
  Plant response rating, Cocklebur: 70
cocklebur; [15]
  Cocklebur plant response rating: 95
cocklebur; [16]
  Plant response rating, Cocklebur: 60
cocklebur; [17]
  Plant response rating, Cocklebur: 10
Large crabgrass; [21]
  Plant response rating, Crabgrass, Large: 60
Large crabgrass; [9]
  Plant response rating, Crabgrass, Large: 80
Large crabgrass; [22]
  Plant response rating, Crabgrass, Large: 85
Large crabgrass; [23]
  Plant response rating, Crabgrass, Large: 100
Large crabgrass; [18]
  Crabgrass, Large plant response rating: 20
Large crabgrass; [14]
  Plant response rating, Crabgrass, Large: 20
Large crabgrass; [16]
  Plant response rating, Crabgrass, Large: 10
Large crabgrass; [17]
  Plant response rating, Crabgrass, Large: 0
Velvetleaf [3]; [21]
  Plant response rating, Velvetleaf: 20
Velvetleaf [3]; [9]
  Plant response rating, Velvetleaf: 100
Velvetleaf [3]; [22]
  Plant response rating, Velvetleaf: 100
Velvetleaf [3]; [23]
  Plant response rating, Velvetleaf: 100
Velvetleaf [3]; [18]
  Velvetleaf plant response rating: 70
Velvetleaf [3]; [14]
  Plant response rating, Velvetleaf: 50
Velvetleaf [3]; [17]
  Plant response rating, Velvetleaf: 0
pigweed; [21]
  Plant response rating, Pigweed: 100
pigweed; [9]
  Plant response rating, Pigweed: 100
pigweed; [22]
  Plant response rating, Pigweed: 100
pigweed; [23]
  Plant response rating, Pigweed: 100
pigweed; [18]
  Pigweed plant response rating: 90
pigweed; [14]
  Plant response rating, Pigweed: 70
pigweed; [17]
  Plant response rating, Pigweed: 50
Giant foxtail; [11]
  Foxtail, Giant plant response rating: 45
Giant foxtail; [4]
  Plant response rating, Foxtail, Giant: 80
Giant foxtail; [6]
  Foxtail, Giant plant response rating: 95
Giant foxtail; [13]
  Foxtail, Giant plant response rating: 70
rice; 125 g ai/ha, 0 = no effect, 100 = complete control
  Rice plant response rating (0 to 100 scale): 10
rice; [20]
  Plant response rating, Rice: 20

## CCCCOc1cccc(NC(=O)c2cc(C(C)(C)C)nn2CC)c1 [Compound 137]
Velvetleaf [1]; [11]
  Velvetleaf plant response rating: 60
Velvetleaf [1]; [4]
  Plant response rating, Velvetleaf: 70
Velvetleaf [1]; [6]
  Velvetleaf plant response rating: 35
Velvetleaf [1]; [13]
  Velvetleaf plant response rating: 20
[2]; 62 g ai/ha
  Plant response rating (0 = no effect, 100 = complete control), Sunflower: 0
[2]; [7]
  Plant response rating, Sunflower: 0
[2]; 500 g ai/ha
  Sunflower plant response rating: 0
cocklebur; 62 g ai/ha, preemergence
  Plant response rating (0 = no effect, 100 = complete control), Cocklebur: 0
cocklebur; [9]
  Plant response rating, Cocklebur: 0
cocklebur; [10]
  Plant response rating, Cocklebur: 0
cocklebur; [15]
  Cocklebur plant response rating: 0
Large crabgrass; 62 g ai/ha, preemergence
  Plant response rating (0 = no effect, 100 = complete control), Crabgrass, Large: 40
Large crabgrass; [9]
  Plant response rating, Crabgrass, Large: 70
Large crabgrass; [10]
  Plant response rating, Crabgrass, Large: 100
Large crabgrass; [19]
  Crabgrass, Large plant response rating: 100
Velvetleaf [3]; [9]
  Plant response rating, Velvetleaf: 10
Velvetleaf [3]; [19]
  Velvetleaf plant response rating: 100
pigweed; 62 g ai/ha, preemergence
  Plant response rating (0 = no effect, 100 = complete control), Pigweed: 100
pigweed; [9]
  Plant response rating, Pigweed: 100
pigweed; [19]
  Pigweed plant response rating: 100
Giant foxtail; [11]
  Foxtail, Giant plant response rating: 20
Giant foxtail; [4]
  Plant response rating, Foxtail, Giant: 30
Giant foxtail; [5]
  Foxtail, Giant plant response rating: 50
Giant foxtail; [6]
  Foxtail, Giant plant response rating: 80
rice; [20]
  Plant response rating, Rice: 10
